Results from publication PMC7914897, “Cytotoxic Potential of a-Azepano- and 3-Amino-3,4-SeCo-Triterpenoids” (International Journal of Molecular Sciences, 2021).
Where two headings read alike, the source gives them in different places.

How the values were obtained:
[1] = system: NCI/ADR-RES (Ovarian cancer); assay: NCI-60 screen (SRB, 48 h); conditions: Homo sapiens
UACC-257 (Melanoma) = assay: NCI-60 screen (SRB, 48 h); conditions: Homo sapiens
CNS cancer subpanel = assay: NCI-60 screen, subpanel; conditions: Homo sapiens
U251 (CNS cancer) = assay: NCI-60 screen (SRB, 48 h); conditions: Homo sapiens, U-251
MALME-3M (Melanoma) = assay: NCI-60 screen (SRB, 48 h); conditions: Homo sapiens
HS 578T (Breast cancer) = assay: NCI-60 screen (SRB, 48 h); conditions: Homo sapiens
SK-MEL-28 (Melanoma) = assay: NCI-60 screen (SRB, 48 h); conditions: Homo sapiens, SK-MEL-28
HOP-92 (NSC lung cancer) = assay: NCI-60 screen (SRB, 48 h); conditions: Homo sapiens
OVCAR-8 (Ovarian cancer) = assay: NCI-60 screen (SRB, 48 h); conditions: Homo sapiens
K-562 (Leukemia) = assay: NCI-60 screen (SRB, 48 h); conditions: Homo sapiens
HCT-15 (Colon cancer) = assay: NCI-60 screen (SRB, 48 h); conditions: Homo sapiens, HCT-15
[2] = system: NCI-H23 (NSC lung cancer); assay: NCI-60 screen (SRB, 48 h); conditions: Homo sapiens, NCI-H23
OVCAR-4 (Ovarian cancer) = assay: NCI-60 screen (SRB, 48 h); format: cell-based; conditions: Homo sapiens
RPMI-8226 (Leukemia) = assay: NCI-60 screen (SRB, 48 h); conditions: Homo sapiens
[3] = system: MDA-MB-31/ATCC (Breast cancer); assay: NCI-60 screen (SRB, 48 h); conditions: Homo sapiens
Leukemia subpanel = assay: cells; conditions: Homo sapiens
OVCAR-5 (Ovarian cancer) = assay: NCI-60 screen (SRB, 48 h)
HCC-2998 (Colon cancer) = assay: NCI-60 screen (SRB, 48 h); conditions: Homo sapiens, HCC 2998
SK-MEL-2 (Melanoma) = assay: NCI-60 screen (SRB, 48 h); conditions: Homo sapiens
SN12C (Renal cancer) = assay: NCI-60 screen (SRB, 48 h)
M14 (Melanoma) = assay: NCI-60 screen (SRB, 48 h); conditions: Homo sapiens
SF-539 (CNS cancer) = assay: NCI-60 screen (SRB, 48 h); conditions: Homo sapiens, SF-539
[4] = system: NCI-H226 (NSC lung cancer); assay: NCI-60 screen (SRB, 48 h); conditions: Homo sapiens
LOX IMVI (Melanoma) = assay: NCI-60 screen (SRB, 48 h); format: cell-based; conditions: Homo sapiens
SK-OV-3 (Ovarian cancer) = assay: NCI-60 screen (SRB, 48 h); conditions: Homo sapiens
MDA-MB-435 (Melanoma) = assay: NCI-60 screen (SRB, 48 h); format: cell-based; conditions: Homo sapiens
[5] = system: panel of approximately 60 cancer cell lines; assay: NCI-60 screen (SRB, 48 h), full panel

C=C(C)[C@@H]1CC[C@]2(COS(=O)(=O)c3ccc(C)cc3)CC[C@]3(C)[C@@H](CC[C@@H]4[C@@]5(C)CCCNC(C)(C)[C@@H]5CC[C@]43C)[C@@H]12 [Compound 12]
GI50 [1]: 1.74 µM | GI50 (UACC-257 (Melanoma); UACC-257): 1.97 µM | IC (TGI) (UACC-257 (Melanoma); UACC-257, 48 h, read-out: TGI): 3.65 µM | IC (TGI) (CNS cancer subpanel; 48 h, read-out: TGI MG_MID): 3.49 µM | GI50 (CNS cancer subpanel; read-out: GI50 MG_MID): 1.79 µM | GI50 (U251 (CNS cancer)): 1.75 µM | GI50 (MALME-3M (Melanoma)): 1.84 µM | IC (TGI) (MALME-3M (Melanoma); 48 h, read-out: TGI): 3.79 µM | GI50 (HS 578T (Breast cancer)): 1.79 µM | IC (TGI) (HS 578T (Breast cancer); 48 h, read-out: TGI): 3.94 µM | GI50 (SK-MEL-28 (Melanoma)): 2.15 µM | GI50 (HOP-92 (NSC lung cancer); HOP-92): 1.54 µM | IC (TGI) (HOP-92 (NSC lung cancer); HOP-92, 48 h, read-out: TGI): 3.01 µM | GI50 (OVCAR-8 (Ovarian cancer); OVCAR-8): 1.91 µM | IC (TGI) (OVCAR-8 (Ovarian cancer); OVCAR-8, 48 h, read-out: TGI): 3.65 µM | GI50 (K-562 (Leukemia); K562): 1.57 µM | CC50 (K-562 (Leukemia); K562, read-out: LC50): > 100 µM | GI50 (HCT-15 (Colon cancer)): 1.38 µM | GI50 [2]: 1.75 µM | IC (TGI) (OVCAR-4 (Ovarian cancer); OVCAR-4, 48 h): 3.38 µM | GI50 (OVCAR-4 (Ovarian cancer); OVCAR-4, read-out: GI50): 1.86 µM | GI50 (RPMI-8226 (Leukemia); RPMI-8226): 1.86 µM | IC (TGI) (RPMI-8226 (Leukemia); RPMI-8226, 48 h, read-out: TGI): 4.54 µM | CC50 (RPMI-8226 (Leukemia); RPMI-8226, read-out: LC50): > 100 µM | GI50 [3]: 1.88 µM | IC (TGI) (Leukemia subpanel; 48 h, read-out: TGI MG_MID): 4.06 µM | GI50 (Leukemia subpanel; read-out: GI50 MG_MID): 1.83 µM | CC50 (Leukemia subpanel; read-out: LC50 MG_MID): > 100 µM | GI50 (OVCAR-5 (Ovarian cancer); Homo sapiens, OVCAR-5): 1.64 µM | IC (TGI) (OVCAR-5 (Ovarian cancer); Homo sapiens, OVCAR-5, 48 h, read-out: TGI): 3.13 µM | Growth % of the Most Sensitive Cell Lines (OVCAR-5 (Ovarian cancer); OVCAR-5, 1 dose 10 µM): −87.72% | GI50 (HCC-2998 (Colon cancer)): 1.58 µM | GI50 (SK-MEL-2 (Melanoma); SK-MEL-2): 1.84 µM | IC (TGI) (SK-MEL-2 (Melanoma); SK-MEL-2, 48 h, read-out: TGI): 3.32 µM | Growth % of the Most Sensitive Cell Lines (SN12C (Renal cancer); 1 dose 10 µM): −94.44% | GI50 (SN12C (Renal cancer); Homo sapiens): 1.88 µM | IC (TGI) (SN12C (Renal cancer); Homo sapiens, 48 h, read-out: TGI): 3.37 µM | GI50 (M14 (Melanoma); M14): 1.83 µM | IC (TGI) (M14 (Melanoma); M14, 48 h, read-out: TGI): 3.3 µM | GI50 (SF-539 (CNS cancer)): 1.7 µM | GI50 ([4]; NCI-H226): 1.81 µM | IC (TGI) ([4]; NCI-H226, 48 h, read-out: TGI): 3.63 µM | activity at 10 µM (LOX IMVI (Melanoma); 48 h, 1 dose 10 µM, read-out: Growth % of the Most Sensitive Cell Lines): -86.5% | GI50 (LOX IMVI (Melanoma); read-out: GI50): 1.72 µM | GI50 (SK-OV-3 (Ovarian cancer); SK-OV-3): 1.87 µM | IC (TGI) (SK-OV-3 (Ovarian cancer); SK-OV-3, 48 h, read-out: TGI): 3.3 µM | CC50 (SK-OV-3 (Ovarian cancer); SK-OV-3, read-out: LC50): 5.82 µM | IC (TGI) (MDA-MB-435 (Melanoma); MDA-MB-435, 48 h, read-out: TGI): 3.19 µM | GI50 (MDA-MB-435 (Melanoma); MDA-MB-435, read-out: GI50): 1.73 µM | Positive Cytostatic Effect (cell lines with percent growth 0 to 50 / total) ([5]; 1 dose 10 µM): 11/60 | number of cancer cell lines the compound was active against ([5]; 1 dose 10 µM): 39 cell lines | activity at 10 µM ([5]; Homo sapiens, 48 h, read-out: Mean Growth, %): -3.21% | activity at 10 µM ([5]; Homo sapiens, 48 h, read-out: Range of Growth, %): -94.4 to 98.7% | IC (TGI) ([5]; Homo sapiens, 48 h, read-out: TGI MG_MID60, average over all cell lines): 3.43 µM | GI50 ([5]; Homo sapiens, read-out: GI50 MG_MID60): 1.77 µM | GI50 ([5]; Homo sapiens, read-out: GI50 against all human tumor cell lines): < 3 µM | CC50 ([5]; Homo sapiens, read-out: LC50 MG_MID60, average over all cell lines): 5.84 µM
